How the values were obtained:
Assay type in all cases: binding
human STING (HAQ) [1] = target: T1, human STING (HAQ) (Homo sapiens, UniProt Q86WV6, G230A/H232R/R293Q); assay: Differential scanning fluorimetry (DSF), huSTING (HAQ); details: 2 μM protein, compound 100 μM; Tm with ligand minus Tm of protein alone (1% DMSO); read-out: DSF huSTING (HAQ) ΔTm (° C.)
Outline: (§1)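 Recombinant His-TEV-tagged human STING allelic variants expressed in E. coli and purified by IMAC. Thermal unfolding followed by dye fluorescence (excitation 490 nm, emission 570 nm) from 20° C. to 100° C. in 0.5° C. steps, in triplicate, with and without ligand; Tm taken from the transition inflection point.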

human STING (WT) = human STING (WT) (Homo sapiens (Human), UniProt Q86WV6, H232R); assay: Differential scanning fluorimetry (DSF), huSTING (WT); details: 2 μM protein, compound 100 μM; Tm with ligand minus Tm of protein alone (1% DMSO); read-out: DSF huSTING (WT) ΔTm (° C.)
Outline: as §1

human STING (HAQ) [2] = target: T1, human STING (HAQ); assay: Surface plasmon resonance (SPR), STING (HAQ); details: biotinylated STING on streptavidin chip, 8° C.
Method: Biophysical experiments were performed with three different recombinant human STING protein variants designated according to allelic nomenclature of Yi et al., (2013). Codon optimized DNA sequences (for expression in Escherichia coli) encoding amino acid residues 149 to 345 (Swiss Prot Q86WV6) of human STING (WT), human STING (HAQ) and human STING (R232H) were synthesised by GenScript USA Inc (Piscataway, New Jersey, USA). These were ligated into a modified pET43a E. coli expression vector designed to encode N-terminal His tag followed by tobacco etch virus protease (TEV) cleavage site and a STING gene sequence. The resulting protein sequences for the three allelic variants are listed below:
Binding interactions of ligands with STING proteins were quantified using Surface Plasmon Resonance (SPR) with a minimally biotinylated STING protein immobilized on a streptavidin chip surface. […] Minimal biotinylation of purified huSTING proteins was performed using a previously described methodology (Chhabra 2012). Briefly, approximately 20 nmol of recombinant STING protein in 1×TBS buffer (25 mM Tris-HCl, pH 7.5, 150 mM NaCl, 5 mM DTT) was mixed with of EZ-Link™ Sulfo-NHS-LC-LC-Biotin (Thermofisher Scientific, cat #21338) at a molar ratio of 1 to 0.6 and incubated on ice for 2 hours. To remove any unreacted biotin reagent, protein/biotin mixture was passed through a Superdex 75 (10/300 GL) column equilibrated with 10 mM HEPES, pH7.4, 150 mM NaCl, 5 mM DTT, 5%[v/v] glycerol. A protein peak containing biotinylated huSTING protein was collected and stored in aliquots at −80° C.
Streptavidin was simultaneously immobilized in all four channels of a CM5 sensor chip docked in a Biacore instrument (either Biacore S200 or Biacore T200, GE Healthcare) as described previously (Zender 2013). […]
All binding experiments were performed at 8° C. in SPR binding buffer. To determine binding affinity, compound interaction with immobilized STING protein was analysed using dose-response experiments. […]

T1 sequence (Q86WV6 whole entry G230A/H232R/R293Q, looked up): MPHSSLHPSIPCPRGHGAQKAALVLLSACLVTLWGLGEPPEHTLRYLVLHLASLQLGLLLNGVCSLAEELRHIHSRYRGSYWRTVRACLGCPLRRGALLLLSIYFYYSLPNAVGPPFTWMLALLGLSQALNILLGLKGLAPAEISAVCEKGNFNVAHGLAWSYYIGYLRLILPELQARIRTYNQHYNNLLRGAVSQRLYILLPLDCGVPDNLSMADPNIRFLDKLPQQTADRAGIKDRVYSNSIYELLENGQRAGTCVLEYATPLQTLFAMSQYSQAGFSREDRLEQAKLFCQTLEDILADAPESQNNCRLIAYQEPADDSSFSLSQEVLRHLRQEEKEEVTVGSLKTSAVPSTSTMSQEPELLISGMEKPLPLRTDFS
human STING (WT), sequence (Q86WV6 other isoform, or with tags, fused parts or gaps, stated change not applied): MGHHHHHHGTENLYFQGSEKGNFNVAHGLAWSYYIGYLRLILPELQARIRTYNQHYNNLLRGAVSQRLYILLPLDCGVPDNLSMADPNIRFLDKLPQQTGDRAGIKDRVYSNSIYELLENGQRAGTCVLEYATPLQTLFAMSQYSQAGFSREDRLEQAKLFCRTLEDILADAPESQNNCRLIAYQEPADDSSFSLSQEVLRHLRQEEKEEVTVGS

| SMILES | ΔTm at 100 µM (human STING (HAQ) [1]) [°C] | ΔTm at 100 µM (human STING (WT)) [°C] | Kd (human STING (HAQ) [2]) [µM] |
| --- | --- | --- | --- |
| NC(=O)c1ccc2c(c1)nc(-c1cc(Br)ccc1C(=O)O)n2CCn1c(-c2cc(Br)ccc2C(=O)O)nc2cc(C(N)=O)ccc21 [Example 3, 2,2′-(Ethane-1,2-diylbis(5-carbamoyl-1H-benzo[d]imidazole-1,2-diyl))bis(4-bromobenzoic acid)] | 2.66 | -0.02 | > 10 |
| COc1c(C(N)=O)ccc2c1nc(-c1ccc(Cl)c(Cl)c1-c1nn[nH]n1)n2CCn1c(-c2ccc(Cl)c(Cl)c2-c2nn[nH]n2)nc2c(OC)c(C(N)=O)ccc21 [Example 37, 1,1′-(Ethane-1,2-diyl)bis(2-(3,4-dichloro-2-(2H-tetrazol-5-yl)phenyl)-4-methoxy-1H-benzo[d]imidazole-5-carboxamide)] | 2.8 | -0.24 | 0.2 |
| COc1c(C(N)=O)ccc2c1nc(-c1ccc(C)cc1C(=O)O)n2CCn1c(-c2ccc(C)cc2C(=O)O)nc2c(OC)c(C(N)=O)ccc21 [Example 25, 6,6′-(Ethane-1,2-diylbis(5-carbamoyl-4-methoxy-1H-benzo[d]imidazole-1,2-diyl))bis(3-methylbenzoic acid)] | -15.6 | -18.4 | – |
| COc1c(C(N)=O)ccc2c1nc(-c1c(F)cccc1C(=O)O)n2CCn1c(-c2c(F)cccc2C(=O)O)nc2c(OC)c(C(N)=O)ccc21 [Example 10, 2,2′-(Ethane-1,2-diylbis(5-carbamoyl-4-methoxy-1H-benzo[d]imidazole-1,2-diyl))bis(3-fluorobenzoic acid)] | 18.4 | 9.63 | – |
| COc1c(C(N)=O)ccc2c1nc(-c1ncc(Cl)cc1C(=O)O)n2CCn1c(-c2ncc(Cl)cc2C(=O)O)nc2c(OC)c(C(N)=O)ccc21 [Example 31, 2,2′-(Ethane-1,2-diylbis(5-carbamoyl-4-methoxy-1H-benzo[d]imidazole-1,2-diyl))bis(5-chloronicotinic acid)] | 3.98 | 0.18 | – |
| COC(=O)c1c(Br)cccc1-c1nc2c(OC)c(C(N)=O)ccc2n1CCn1c(-c2cccc(Br)c2C(=O)OC)nc2c(OC)c(C(N)=O)ccc21 [Example 21, Dimethyl 6,6′-(ethane-1,2-diylbis(5-carbamoyl-4-methoxy-1H-benzo[d]imidazole-1,2-diyl))bis(2-bromobenzoate)] | 5.83 | 2.33 | – |
| COc1c(C(N)=O)ccc2c1nc(-c1ccc(Cl)cc1C(=O)O)n2CCn1c(-c2ccc(Cl)cc2C(=O)O)nc2c(OC)c(C(N)=O)ccc21 [Example 1, 6,6′-(Ethane-1,2-diylbis(5-carbamoyl-4-methoxy-1H-benzo[d]imidazole-1,2-diyl))bis(3-chlorobenzoic acid)] | 9.44 | 5.07 | – |

Other lines, results leading:

| ΔTm at 100 µM (human STING (HAQ) [1]) [°C] | ΔTm at 100 µM (human STING (WT)) [°C] | Kd (human STING (HAQ) [2]) [µM] | SMILES |
| --- | --- | --- | --- |
| 3.68 | 0.38 | > 100 | COc1c(C(N)=O)ccc2c1nc(-c1ccc(C(F)(F)F)cc1C(=O)O)n2CCn1c(-c2ccc(C(F)(F)F)cc2C(=O)O)nc2c(OC)c(C(N)=O)ccc21 [Example 38, 6,6′-(Ethane-1,2-diylbis(5-carbamoyl-4-methoxy-1H-benzo[d]imidazole-1,2-diyl))bis(3-(trifluoromethyl)benzoic acid)] |
| 28.6 | 14.4 | – | COc1c(C(N)=O)ccc2c1nc(-c1c(F)cc(Cl)cc1-c1nn[nH]n1)n2CCn1c(-c2c(F)cc(Cl)cc2-c2nn[nH]n2)nc2c(OC)c(C(N)=O)ccc21 [Example 46, 1,1′-(Ethane-1,2-diyl)bis(2-(4-chloro-2-fluoro-6-(2H-tetrazol-5-yl)phenyl)-4-methoxy-1H-benzo[d]imidazole-5-carboxamide)] |
| 25.5 | 11.8 | – | COc1c(C(N)=O)ccc2c1nc(-c1c(F)cccc1-c1nn[nH]n1)n2CCn1c(-c2c(F)cccc2-c2nn[nH]n2)nc2c(OC)c(C(N)=O)ccc21 [Example 48, 1,1′-(Ethane-1,2-diyl)bis(2-(2-fluoro-6-(2H-tetrazol-5-yl)phenyl)-4-methoxy-1H-benzo[d]imidazole-5-carboxamide)] |
| 21.3 | 10.2 | – | COc1c(C(N)=O)ccc2c1nc(-c1c(F)cccc1-c1n[nH]c(=O)o1)n2CCn1c(-c2c(F)cccc2-c2n[nH]c(=O)o2)nc2c(OC)c(C(N)=O)ccc21 [Example 49, 1,1′-(Ethane-1,2-diyl)bis(2-(2-fluoro-6-(5-oxo-4,5-dihydro-1,3,4-oxadiazol-2-yl)phenyl)-4-methoxy-1H-benzo[d]imidazole-5-carboxamide)] |
| 6.3 | 2.04 | – | COc1c(C(N)=O)ccc2c1nc(-c1cc(Cl)ccc1-c1nn[nH]n1)n2CCn1c(-c2cc(Cl)ccc2-c2nn[nH]n2)nc2c(OC)c(C(N)=O)ccc21 [Example 42, 1,1′-(Ethane-1,2-diyl)bis(2-(5-chloro-2-(2H-tetrazol-5-yl)phenyl)-4-methoxy-1H-benzo[d]imidazole-5-carboxamide)] |
